Measured values published in the NIST ThermoML archive (doi:10.1016/j.fluid.2007.10.016).
± gives the expanded uncertainty stated by the source.

Key:
[1] = refractive index (Na D-line) (dimensionless); settings: 298.15 K; 101.33 kPa; Liquid; Standard Abbe refractometry
[2] = Liquid; for mass density: 298.15 K, 101.33 kPa; for vapor or sublimation pressure: Ebulliometric method (Recirculating still)

Compound | refractive index [1] | mass density [2] | vapor or sublimation pressure ([2]; 330 K) | vapor or sublimation pressure ([2]; 340 K)
CC(C)O [propan-2-ol] | 1.37504 ± 0.00072 | 780.91 ± 0.31 kg/m3 | 33.25 ± 0.19 kPa | 52.97 ± 0.26 kPa
CC(=O)C(C)C [3-methyl-2-butanone] | 1.3862 ± 0.00072 | 799.55 ± 0.45 kg/m3 | 27.69 ± 0.16 kPa | 40.45 ± 0.2 kPa
CC(C)CC(C)(C)C [2,2,4-trimethylpentane] | 1.38894 ± 0.00072 | 687.79 ± 0.41 kg/m3 | 25.47 ± 0.14 kPa | 36.64 ± 0.19 kPa
